Assay results reported in paper PMC9196127, “Novel STAT3 Inhibitors Targeting STAT3 Dimerization by Binding to the STAT3 SH2 Domain” (Frontiers in Pharmacology, 2022).

Target: STAT3 (Homo sapiens, UniProt P40763)
Assay: Fluorescence polarization (FP) competition assay with 5-FLU-GpYLPQTV-NH2
Format: binding
Set-up: purchased Abcam ab43618
Settings: FP assay
Protocol: The FP assay was conducted as described in [Zhao et al. (2010]). The fluorochrome-labeled phosphopeptide, 5-FLU-G (pY)LPQTV-NH2, was synthesized by ProImmune (London, United Kingdom) with over 95% purity as a probe. The recombinant human STAT3 protein was purchased from Abcam (ab43618). To obtain an inhibitory effect, drugs (0–1,000 μM) and 150 nM human STAT3 were incubated at 37°C in an assay buffer (50 mm NaCl, 10 mm HEPES, 1 mm EDTA, and 0.01% Triton X-100) for 1 h prior to co-incubation with 10 nM of the fluorochrome-labeled peptide at RT for 30 min. The plate was sealed under nitrogen and left at RT for 72 h. The fluorescence polarization was then analyzed by the BioTek Synergy™ Neo2 Multi-Mode Microplate Reader (BioTek Instruments, Winooski, VT, United States). Binding curves were fit to a log-logistic function using the R package drc. Ki was determined from the resulting IC50 using the Cheng–Prusoff equation and the Kd for fluorochrome-labeled peptide binding to STAT3, Ki = IC50/(([L])/Kd) +1. […]
FIGURE 4 Fluorescence polarization (FP) assays identified 323s as direct STAT3 SH2 domain binders. (A) Fluorescence polarization (FP) analysis of the binding of 10 nM GpYLTQTV-NH2and 150 nM human STAT3 protein with increasing concentration of drugs. […]

STAT3, sequence (P40763 whole entry): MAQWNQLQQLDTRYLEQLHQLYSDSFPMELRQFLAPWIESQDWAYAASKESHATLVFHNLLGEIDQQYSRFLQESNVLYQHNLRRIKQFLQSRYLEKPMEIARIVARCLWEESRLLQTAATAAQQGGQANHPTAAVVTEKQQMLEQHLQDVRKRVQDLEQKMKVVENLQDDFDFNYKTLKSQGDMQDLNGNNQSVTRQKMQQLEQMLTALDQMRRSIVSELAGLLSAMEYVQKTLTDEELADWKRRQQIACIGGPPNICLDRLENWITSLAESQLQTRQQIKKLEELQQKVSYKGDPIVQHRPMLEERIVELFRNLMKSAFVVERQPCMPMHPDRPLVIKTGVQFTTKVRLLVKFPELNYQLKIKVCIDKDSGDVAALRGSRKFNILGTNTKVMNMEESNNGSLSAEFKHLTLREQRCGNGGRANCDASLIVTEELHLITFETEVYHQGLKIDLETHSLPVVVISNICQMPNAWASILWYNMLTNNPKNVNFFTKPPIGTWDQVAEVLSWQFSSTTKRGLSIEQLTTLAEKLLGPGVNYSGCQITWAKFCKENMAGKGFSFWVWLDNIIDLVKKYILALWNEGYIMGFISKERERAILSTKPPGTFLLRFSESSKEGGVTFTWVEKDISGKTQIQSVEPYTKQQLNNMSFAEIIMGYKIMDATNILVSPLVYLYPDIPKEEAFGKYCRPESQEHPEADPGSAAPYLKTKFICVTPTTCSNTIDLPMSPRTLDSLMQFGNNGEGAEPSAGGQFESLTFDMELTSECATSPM

## C[C@@H]1CCC(c2cc3c4c(cncc4c2)[C@H](C)C3)=C1C=O [323–1, (15R,2R)-delavatine A]
  potency to disrupt STAT3/GpYLPQTV relative to S3I-201: around five-fold more potently than S3I-201

## C[C@@H]1CCC(c2cc3c4c(cncc4c2)[C@@H](C)C3)=C1C=O [323–2, (15S,2R)-delavatine A]
  potency to disrupt STAT3/GpYLPQTV relative to S3I-201: around five-fold more potently than S3I-201
